Measurements reported in patent US20200253990A1, “ASPIRIN FORMULATION FOR INCREASED EFFICACY” (Vitalis LLC, priority 2013, published 2020).

Tests used:
[1] = cited from earlier work
[2] = system: Healthy human patients who experience non-specific headaches; assay: Headache rated on 10-point scale, aspirin alone, Example 5; assay type: in vivo; conditions: 30 minutes
Description: (§1) Healthy human patients who experience non-specific headaches were recruited for this study. […] Each patient was asked to rate his or her headache on the 10-point scale (see FIG. 3). The patient then swallowed 891 mg of aspirin (11 tablets of 81 mg each) without chewing. Each patient was asked to rate his or headache again on the 10-point scale 30-minutes later. […] The patient then chewed 891 mg of aspirin (11 tablets of 81 mg each) and rubbed the aspirin in their oral mucosa, lips, gums and mouth and was asked to be careful not to swallow any of the aspirin, but to wash out their mouth afterwards with a sip of soda and spitting out such that no aspirin was swallowed. Each patient was asked to rate his or headache again on the 10-point scale 30-minutes later. Not until at least two days later did Period III start. […] The patient then chewed 891 mg of aspirin (11 tablets of 81 mg each) and rubbed the aspirin in their oral mucosa, lips, gums and mouth for about 10 seconds or until half was dissolved, then to take a sip of soda to wash the rest, but this time to swallow the soda and aspirin such that half was swallowed. Each patient was asked to rate his or headache again on the 10-point scale 30-minutes later.

Healthy human patients = assay: Niacin flush rated on the Global Flush Severity Scale (GFSS), Example 1; assay type: in vivo; conditions: then 500 mg niacin
Description: Healthy human patients were recruited for this study. […] Each patient was asked to rate his or her flush on the Global Flush Severity Scale (GFSS) (see FIG. 1 and Paolini et al. Int. J. Clin. Pract. 62(6):896-904 (2008)), when the flush completely resolved. The Global Flushing Severity Score measures, overall, in the previous 24 hours, how each patient rates the flushing symptoms, including redness, warmth, tingling, and itchiness of the skin. […] After the flush completely resolved, then each patient recorded his or her GFSS flush rating. Not until at least two days later did Period III start. At Period III, each patient was asked to not swallow the orally administered aspirin (81 mg) but to allow the aspirin to be absorbed through the oral mucosa. The aspirin was in powdered form and the remaining aspirin in the mouth was washed out with water. […] Still, the flush was rated (GFSS) after it was resolved. […] The flush was then rated (GFSS) after it completely resolved.

[3] = system: Healthy human patients who experience non-specific headaches; assay: Headache rated on 10-point scale, aspirin with acetaminophen and caffeine, Example 4; assay type: in vivo; conditions: 30 minutes
Description: as §1, with “486” for “891”, “(6” for “(11”, “chewing, immediately followed by swallowing a combination of pill 1000 mg acetaminophen and 130 mg caffeine.” for “chewing.”, “swallowed. This was immediately followed by the patient swallowing a combination pill of 1000 mg acetaminophen and 130 mg caffeine.” for “swallowed.”

[4] = Period II: 81 mg aspirin swallowed
[5] = Period IV: 81 mg aspirin half mucosally absorbed and half swallowed

Row | Compound | time within which most of the elimination from the serum occurs ([1]; salicylic acid, metabolite of aspirin) [min] | time to peak of aspirin serum levels following administration ([1]; GI-absorbed aspirin) [min] | decrease in headache ([2]; Period I: 891 mg aspirin swallowed) [%] | decrease in headache ([2]; Period II: 891 mg aspirin chewed, oral mucosa only, none swallowed) [%] | decrease in headache ([2]; Period III: 891 mg aspirin half dissolved in mouth, half swallowed) [%] | Global Flush Severity Scale (GFSS) average score (Healthy human patients; [4]) | reduction of flush severity from Period I (Healthy human patients; [4]) [%] | Global Flush Severity Scale (GFSS) average score (Healthy human patients; Period III: 81 mg aspirin mucosally absorbed (not swallowed)) | reduction of flush severity from Period I (Healthy human patients; Period III: 81 mg aspirin mucosally absorbed) [%] | Global Flush Severity Scale (GFSS) average score (Healthy human patients; [5]) | reduction of flush severity from Period I (Healthy human patients; [5]) [%] | decrease in headache ([3]; Period I: 486 mg aspirin swallowed + 1000 mg acetaminophen and 130 mg caffeine) [%] | decrease in headache ([3]; Period II: 486 mg aspirin chewed, oral mucosa only, none swallowed + 1000 mg acetaminophen and 130 mg caffeine) [%] | decrease in headache ([3]; Period III: 486 mg aspirin half dissolved in mouth, half swallowed + 1000 mg acetaminophen and 130 mg caffeine) [%]
1 | O=C(O)c1ccccc1O [salicylic acid] | ≤ 20 |  |  |  |  |  |  |  |  |  |  |  |  | 
2 | CC(=O)Oc1ccccc1C(=O)O [aspirin, acetylsalicylic acid] |  | 15 to 20 | 53 | 57 | 86 | 6.88 | 18 | 5.06 | 40 | 3.94 | 53 | 55 | 62 | 77
